The values below come from ChEMBL document CHEMBL4811277, “Glycyrrhetinic acid derivatives as Zika virus inhibitors: Synthesis and antiviral activity in vitro” (Bioorg Med Chem, 2021).

Activity calls are given as the source filed them. The rule behind the calls is not given here.

Series [1] relates to Zika virus. Nature of the series: Antiviral activity against Zika virus infected in human SF-268 cells assessed as inhibition of virus-induced cytopathic effect at 10 uM measured at 96 hrs MTT assay. The class given is functional.
For series [2], the system named is Zika virus. Nature of the series: Antiviral activity against Zika virus infected in human SF-268 cells assessed as reduction in viral NS1 protein synthesis at 10 uM measured at 96 hrs by immunofluorescence assay relative to control. The class given is functional.
The subject of series [3] is Zika virus. Nature of the series: Antiviral activity against Zika virus infected in SF-268 cells assessed as inhibition of viral infection at entry stage measured after 96 hrs by DAPI staining based fluorescence microscopic analysis. The class given is functional, organism-based. As to conditions: SF-268, 96 h.
The nature of series [4]: Cytotoxicity against human SF-268 cells assessed as inhibition of cell viability measured after 96 hrs by MTT assay. The class given is cell-based. For orientation: Tetrazolium assays rely on reduction of a dye to a coloured formazan, in cell work by metabolically active cells.
In series [5] the test system is Zika virus. Nature of the series: Antiviral activity against Zika virus infected in SF-268 cells assessed as inhibition of viral infection at post entry stage after 96 hrs measured after 1 hr post infection by DAPI staining based fluorescence microscopic analysis. The class given is functional, organism-based.
The nature of series [6]: Therapeutic index, ratio of CC50 for cytotoxicity against human SF-268 cells to IC50 for antiviral activity against Zika virus infected in human SF-268 cells. The class given is toxicity, cell-based. As to conditions: read-out: TI.
In series [7] the test system is Zika virus. The experiment in a line: Antiviral activity against Zika virus infected in human SF-268 cells assessed as reduction in viral infection by DAPI staining based immunofluorescence assay. The class given is functional, organism-based.

A word on the inhibition: it is the share of the control response that was lost under treatment. Regarding `COC(=O)[C@]1(C)C=C2C3=CC(=O)C4[C@@]5(C)CC/C(=N\NC(N)=O)C(C)(C)C5CC[C@@]4(C)[C@]3(C)CC[C@@]2(C)CC1` (some centres not stated), the inhibition at 10 µM with Zika virus [1] turned out to be 63%. In the series with Zika virus [2], the INH was found to be 62.6%.

With `COC(=O)[C@@]1(C)CC[C@]2(C)CC[C@]3(C)C(=CCC4[C@@]5(C)CC/C(=N\NC(N)=O)C(C)(C)C5CC[C@]43C)C2C1` (some centres not stated), in the series on Zika virus [1], the inhibition entry is “Active”. Moreover, in the series with Zika virus [2], the INH was 49.9%.

In the case of `COC(=O)[C@@]1(C)CC[C@]2(C)CC[C@]3(C)C(=CC(=O)C4[C@@]5(C)CC/C(=N\NC(N)=O)C(C)(C)C5CC[C@]43C)[C@@H]2C1` (some centres not stated), the inhibition at 10 µM with Zika virus [1] was determined as 63%. Also, the INH in the series on Zika virus [2] is listed as 66.6%.

A word on the IC50: it is the point on the concentration scale where inhibition reaches its midpoint. What is called CC50 is the concentration that lowers cell viability or growth by half. Regarding `COC(=O)[C@@]1(C)CC[C@]2(C)CC[C@]3(C)C(=CC(=O)C4[C@@]5(C)Cc6snnc6C(C)(C)C5CC[C@]43C)[C@@H]2C1` (some centres not stated), the IC50 came out at 620 nM with Zika virus [3], 1940 nM with Zika virus [5] and 290 nM in the series with Zika virus [7]. For the same molecule, the CC50 at 96 h in series [4] is > 50000 nM. In addition, the inhibition at 10 µM with Zika virus [1] is > 70%. Besides, the selectivity ratio in series [6] was > 172. Besides, the INH with Zika virus [2] turned out to be 74.9%.

For the molecule `CCCCOC(=O)[C@@]1(C)CC[C@]2(C)CC[C@]3(C)C(=CC(=O)C4[C@@]5(C)CC/C(=N\NC(N)=O)C(C)(C)C5CC[C@]43C)[C@@H]2C1` (some centres not stated), the figures for the IC50 in the series with Zika virus [3], with Zika virus [5] and with Zika virus [7] were 1090 nM, 450 nM and 550 nM, respectively. Also, the CC50 at 96 h in series [4] is > 50000 nM. Besides, the inhibition at 10 µM in the series on Zika virus [1] was > 70%. In series [6], the selectivity ratio was > 90.9. The INH with Zika virus [2] amounted to 82.8%.

Consider `COC(=O)[C@@]1(C)CC[C@]2(C)CC[C@]3(C)C(=CCC4[C@@]5(C)CC/C(=N\NC(N)=S)C(C)(C)C5CC[C@]43C)C2C1` (some centres not stated), for which, in the series with Zika virus [1], the inhibition entry was “Active”. For the same molecule, the INH in the series on Zika virus [2] is 49.5%.

Regarding `CC(=O)O[C@H]1CC[C@@]2(C)C(CC[C@]3(C)C2C(=O)C=C2C4C[C@@](C)(C(=O)Nc5nc(-c6ccccc6)cs5)CC[C@]4(C)CC[C@]23C)C1(C)C` (some centres not stated), the inhibition entry in the series on Zika virus [1] is “Active”. Besides, the INH with Zika virus [2] was 52.3%.

Regarding `CCCCOC(=O)[C@@]1(C)CC[C@]2(C)CC[C@]3(C)C(=CC(=O)C4[C@@]5(C)Cc6snnc6C(C)(C)C5CC[C@]43C)[C@@H]2C1` (some centres not stated), the values for the IC50 in the series on Zika virus [3], with Zika virus [5] and in the series on Zika virus [7] were 500 nM, 430 nM and 560 nM, respectively. For the same molecule, the CC50 at 96 h in series [4] was > 50000 nM. For the same molecule, the inhibition at 10 µM in the series on Zika virus [1] is > 70%. Moreover, the selectivity ratio in series [6] was > 89.3. Further, the INH in the series with Zika virus [2] came to 82.1%.

Consider `CC(=O)O[C@H]1CC[C@@]2(C)C(CC[C@]3(C)C2C(=O)C=C2C4C[C@@](C)(C(=O)Nc5cccnc5)CC[C@]4(C)CC[C@]23C)C1(C)C` (some centres not stated), for which the values for the IC50 with Zika virus [3], with Zika virus [5] and in the series with Zika virus [7] were 680 nM, 1000 nM and 130 nM, respectively. The CC50 at 96 h in series [4] is > 50000 nM. Also, the inhibition at 10 µM with Zika virus [1] is > 70%. In series [6], the selectivity ratio was > 384. The INH in the series on Zika virus [2] amounted to 76.3%.

In the case of `CC(=O)O[C@H]1CC[C@@]2(C)C(CC[C@]3(C)C2C(=O)C=C2C4C[C@@](C)(C(=O)Nc5cnc6ccccc6c5)CC[C@]4(C)CC[C@]23C)C1(C)C` (some centres not stated), the inhibition entry in the series on Zika virus [1] is “Active”. Further, in the series on Zika virus [2], the INH came to 26.5%.

`COC(=O)[C@@]1(C)CC[C@]2(C)CC[C@]3(C)C(=CCC4[C@@]5(C)Cc6snnc6C(C)(C)C5CC[C@]43C)C2C1` (some centres not stated): in the series on Zika virus [1], the inhibition result is “Active”. In the series with Zika virus [2], the INH was found to be 55.4%.
